Several values for one entry are separate records, joined by “and”; a condition that tells them apart may be missing. Equal entries are not always repeated.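 These data come from cells grown in 96-well plates and exposed to compound for 48 hours at five concentrations. GI50 = concentration required for 50% inhibition of growth. Definition used: TGI = concentration required for complete inhibition of growth.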
Assays:
Assay in all cases: growth of human tumour cells (NCI), 48 h
HS 578T breast = test system: HS 578T breast
SNB-19 CNS = test system: SNB-19 CNS
ACHN renal = test system: ACHN renal
HCC-2998 colon = test system: HCC-2998 colon
MDA-MB-435 = test system: MDA-MB-435
TK-10 renal = test system: TK-10 renal
IGROV1 ovarian = test system: IGROV1 ovarian
UO-31 renal = test system: UO-31 renal
SN12C renal = test system: SN12C renal
M14 melanoma = test system: M14 melanoma
HOP-92 NSCLC = test system: HOP-92 NSCLC
RXF 393 renal = test system: RXF 393 renal
SK-MEL-28 melanoma = test system: SK-MEL-28 melanoma
RPMI-8226 leukemia = test system: RPMI-8226 leukemia

Compound | TGI (HS 578T breast) [µM] | TGI (SNB-19 CNS) [µM] | TGI (ACHN renal) [µM] | TGI (HCC-2998 colon) [µM] | TGI (MDA-MB-435) [µM] | TGI (TK-10 renal) [µM] | TGI (IGROV1 ovarian) | TGI (UO-31 renal) [µM] | TGI (SN12C renal) [µM] | TGI (M14 melanoma) [µM] | TGI (HOP-92 NSCLC) [µM] | TGI (RXF 393 renal) [µM] | TGI (SK-MEL-28 melanoma) | TGI (RPMI-8226 leukemia) | GI50 (SK-MEL-28 melanoma) | GI50 (IGROV1 ovarian) [µM] | GI50 (RPMI-8226 leukemia)
Cc1cn(C2CC(ON3C(=O)c4ccccc4C3=O)C(CO)O2)c(=O)[nH]c1=O (stereo not given) | > 10 | > 10 | > 10 | > 10 | > 10 | > 10 | > 10 µM | > 10 | > 10 | > 10 | > 10 | > 10 | – | – | – | – | –
Clc1ccc(-c2c(C3=NCCN3)nnn2-c2ccc(Cl)cc2)cc1 | – | > 100 | > 100 | 33.6 | – | 69.7 | > 100 µM | 64.5 | > 100 | 31.7 | 50.2 | 75.8 | 52.5 µM | 38.8 µM | – | – | –
COC(CN(C(=O)c1ccccc1)C1CCC2(SCCS2)c2[nH]c3ccccc3c21)OC (stereo not given) | > 100 | > 100 | > 100 | > 100 | 70.2 | > 100 | > 100 µM | > 100 | > 100 | > 100 | > 100 | > 100 | > 100 µM | > 100 µM | – | – | –
COC(=O)C(=C/c1ccc(OC)cc1)/C(C(=O)O)=C(/C)c1ccccc1 | – | > 100 | > 100 | > 100 | – | > 100 | > 100 µM | > 100 | > 100 | > 100 | > 100 | > 100 | – | > 100 µM | – | – | –
N#Cc1c(-c2ccccc2)[nH]c2ccccc2c1=O | 71.5 | 74.9 | > 100 | – | 59.2 | 97.8 | > 100 µM | – | > 100 | > 100 | > 100 | > 100 | > 100 µM | – | – | – | –
CCN1c2nc3ccccc3nc2N(CC)c2nc3ccccc3nc21 | > 100 | > 100 | > 100 | > 100 | > 100 | > 100 | > 100 µM | > 100 | > 100 | > 100 | – | > 100 | > 100 µM | > 100 µM | – | – | –
CCCCCC(C[N+]1(C)CCOCC1)C(=O)/C=C/c1ccccc1 (stereo not given) | – | 24.5 | 60.8 | 33.7 | – | 37.8 | 40.1 µM | 29.7 | 28.6 | 25.9 | 35.3 | 28.2 | 30 µM | 8.59 µM | – | – | –
O=C(C[n+]1ccccc1)NNC(=O)/C(=C/c1ccc2c(c1)OCO2)NC(=O)c1ccccc1 | – | > 100 | > 100 | > 100 | – | > 100 | > 100 µM | > 100 | > 100 | > 100 | > 100 | > 83.9 | > 100 µM | 63 µM | – | – | –
C=CCn1c(=O)n(CC=C)c(=O)n(CC=C)c1=O | – | > 100 | > 100 | > 100 | – | > 100 | > 100 µM | > 100 | > 100 | > 100 | > 100 | > 100 | > 100 µM | > 100 µM | – | – | –
O=[N+]([O-])c1ccc(-n2nnc(C3=NCCCN3)c2-c2ccc(Cl)cc2)cc1 | – | > 100 | > 100 | > 100 | – | > 100 | > 100 µM | > 100 | > 100 | > 100 | > 100 | > 100 | > 100 µM | > 100 µM | – | – | –
Cc1ccc2nc(-c3ccc(N)c(I)c3)sc2c1 | > 100 | 86.4 | > 100 | 26.4 | 79.1 | 17.7 | – | 26.2 | – | > 100 | 71.5 | > 100 | > 100 µM | – | – | – | –
Nc1ccc(C(=O)NN2C(=O)C(Cl)C2c2ccccc2Cl)cc1 (stereo not given) | – | 30.6 | 30 | 30.1 | – | 30.1 | 26.4 µM | 30.8 | – | 25.9 | 14.9 | 20.1 | 28.3 µM | > 100 µM | – | – | –
O=c1[nH]cc(COCC(F)(F)C(F)(F)C(F)(F)C(F)F)c(=O)[nH]1 | – | > 100 | > 100 | > 100 | – | > 100 | > 100 µM | > 100 | > 100 | > 100 | > 100 | > 100 | > 100 µM | > 100 µM | – | – | –
Cc1cn(C2CC(N(O)Cc3ccccc3)C(CO)O2)c(=O)[nH]c1=O (stereo not given) | – | > 100 | > 100 | > 100 | – | > 100 | > 100 µM | > 100 | > 100 | > 100 | – | > 100 | > 100 µM | > 100 µM | – | – | –
CC(C)CC1[C@@H](OCc2ccccc2)COS(=O)N1Cc1ccccc1 (stereo not given in full) | 80 | > 100 | 96.2 | – | > 100 | > 100 | > 100 µM | > 100 | > 100 | > 100 | – | – | > 100 µM | 51 µM | – | – | –
Cc1ccc2c(c1CCCC(C)(C)O)C(=O)C(=O)C(C(C)C)=C2O | – | > 100 | > 100 | > 100 | – | > 100 | > 100 µM | > 100 | > 100 | > 100 | > 100 | > 100 | > 100 µM | > 100 µM | – | – | –
COc1cc2c(cc1OC)C(O)[C@H](Br)C(C)(C)O2 (stereo not given in full) | – | > 100 | > 100 | > 100 | – | > 100 | > 100 µM | > 100 | > 100 | > 100 | > 100 | > 100 | > 100 µM | > 100 µM | – | – | –
O=C1C(Cl)C(c2ccccc2)N1n1cnc2ccccc2c1=O (stereo not given) | – | > 100 | > 100 | > 100 | – | > 100 | > 100 µM | > 100 | > 100 | > 100 | – | > 100 | > 100 µM | > 100 µM | – | – | –
C=C1C(=O)O[C@H]2[C@H]1[C@@H](OC(=O)C=C(C)C)CC1=C[C@@H](C[C@@]3(C)O[C@@H]23)OC1=O | – | 55.3 | – | 34.9 | – | – | 27 µM and 34.4 µM | 20.9 | 12.7 | – | 4.15 | 3.82 | 46 µM and 8.18 µM | 67.2 µM and 7.16 µM | 8.31 µM and 3.23 µM | 14.2 | 0.81 µM and 2.61 µM
Cc1ccc(C2CC(c3ccco3)=NN2c2ccccc2)o1 (stereo not given) | – | > 100 | > 100 | – | – | > 100 | > 100 µM | > 100 | > 100 | > 100 | – | > 100 | > 100 µM | > 100 µM | – | – | –
CC(C)(C)C(=O)/C=C/c1ccc(Oc2ccccc2)cc1 | – | 68.1 | 32.7 | > 100 | – | 59.7 | > 100 µM | 54.3 | 46 | 34.5 | – | 52.8 | > 100 µM | 29.3 µM | – | – | –
C/C(=C1/CCCC2(N=NCC2c2ccccc2)C1=O)c1ccccc1 (stereo not given) | – | > 100 | > 100 | > 100 | – | > 100 | > 100 µM | > 100 | > 100 | 29 | > 100 | 79.5 | 73.2 µM | > 100 µM | – | – | –
COc1c(C)c2c(c(C)c1Cl)Oc1c(C=O)c(O)c(Cl)c(C)c1C(=O)O2 | – | – | 69.7 | 69.8 | – | > 100 | 83.8 µM | – | > 100 | > 100 | – | – | – | > 100 µM | – | – | –
COc1cc2c(cc1OCc1ccccc1)CNCC2 | – | > 100 | > 100 | > 100 | – | > 100 | > 100 µM | > 100 | > 100 | > 100 | > 100 | > 100 | > 100 µM | – | – | – | –
Cc1cccc(NC(=O)/C=C/c2ccc(N(CCC#N)CCC#N)cc2C)c1 | – | > 100 | > 100 | > 100 | – | > 100 | > 100 µM | > 100 | > 100 | > 100 | > 100 | – | > 100 µM | > 100 µM | – | – | –
COc1ccc(C(=O)C(CO)Oc2ccccc2OC)cc1OC (stereo not given) | – | > 100 | > 100 | > 100 | – | > 100 | > 100 µM | > 100 | > 100 | > 100 | – | – | > 100 µM | > 100 µM | – | – | –
COc1ccc2c(c1)CC[C@@H]1[C@@H]2CC[C@]2(C)C(=O)/C(=C/c3ccc(OC)c(OC)c3)C[C@@H]12 | – | > 100 | > 100 | > 100 | > 100 | > 100 | – | > 100 | – | > 100 | > 100 | > 100 | – | > 100 µM | – | – | –
CNC(=S)N/N=C(C)\C(=N/NC(=S)NC)c1ccccc1 | 72.5 | > 100 | > 100 | > 100 | – | > 100 | > 100 µM | > 100 | – | > 100 | – | > 100 | – | – | – | – | –

From PubChem BioAssay (NCI)
